# Test results published in patent US4409240A, “Derivatives of dihydroxybenzoic acid and pharmaceutical composition thereof” (Kureha Kagaku Kogyo Kabushiki Kaisha, priority 1981, dated 1983).
# Key:
# in vivo = conditions: mouse, in vivo, po
# Excerpt: (§1) Acute toxicity was examined by administering perorally an aqueous solution of each Specimen to female JCL-ICR mouse of 5 to 6 weeks after birth. As the Specimen, trans-4-[N-(3',4'-dihydroxybenzoyl)aminomethyl]cyclohexane-1-carboxylic acid, 4-[N-(3',4'-dihydroxybenzoyl)amino]benzoic acid and 6-[N-(3',4'-dihydroxybenzoyl)amino]caproic acid were used.
# female JCL-ICR mouse = assay: Acute toxicity; conditions: peroral, aqueous solution, female JCL-ICR mouse 5 to 6 weeks
# Excerpt: as §1
# [1] = tested on: platelet aggregation (rabbit platelet rich plasma); assay: Inhibitory effect on platelet aggregation (induced by sodium arachidonate); type: cell-based; conditions: Oryctolagus cuniculus, average value, 1.5 mM of each Specimen, rabbit PRP, preincubated 37° C. 5 min, read-out: Inhibition rate of platelet aggregation
# Experimental: Rabbit platelet rich plasma (PRP) was used for Aggregation Tests. PRP was prepared by centrifugation of blood collected from the ear vein of Rabbit and diluted into number-concentration 300,000/μl with platelet poor plasma. Platelet aggregation was induced by Sodium Arachidonate and monitored (measured) with a four channel platelet aggregation Tracer PAT-4A (Niko Bioscience Co., Japan). Aggregation Tracer tube containing 230 μl PRP was preincubated at 37° C. for 5 min with each Specimen.
# [2] = tested on: polynuclear leukocyte migration; assay: Inhibitory effect on polynuclear leukocyte migration (Granuloma CMC pouch method); type: in vivo, rat (male, Donyru); conditions: average value; 100 mg p.o./kg body weight; 6 hours after the administration; rat CMC pouch
# Experimental: After shearing the rat on the dorsum about 5 cm in diameter, 5 ml of air was hypodermically injected into the site to form a pouch. After 24 hours, 5 ml of aqueous 2% (w/v) solution of CMC sodium salt at 37° C. was injected into the pouch, and at the same time an aqueous solution of each Specimen was administered perorally to the rat.
# After the injection of CMC, the liquid in the pouch was collected as the time passed by in an amount of 0.5 ml and stained. Then the number of polynuclear leukocyte migrated into the pouch was counted.
# adjuvant arthritis = assay: Prophylactic effect on adjuvant arthritis; type: in vivo, rat (female JCL-SD); conditions: average value of prophylactic rate; 100 mg p.o./kg/day for continuous 14 days; rat
# Experimental: Freund's complete adjuvant (0.6 mg/0.1 ml) was inoculated into the right hind paw of the etherized rat. After palinesthesia, each specimen was administered perorally once a day for 14 continuous days.
Compound,LD50 (in vivo) [mg/kg],abnormality on the mouse (female JCL-ICR mouse),inhibition at 1500 µM [1] [%],Inhibition rate of polynuclear leukocyte migration [2] [%],Prophylactic effect on adjuvant arthritis (adjuvant arthritis) [%]
"O=C(O)c1ccc(NC(=O)c2ccc(O)c(O)c2)cc1 [4-[N-(3',4'-dihydroxybenzoyl)amino]benzoic acid]",> 3000,no abnormality on the mouse was found,,,
"O=C(O)CCCCCNC(=O)c1ccc(O)c(O)c1 [6-[N-(3',4'-dihydroxybenzoyl)amino]caproic acid]",> 3000,no abnormality on the mouse was found,,,
"O=C(NC[C@H]1CC[C@H](C(=O)O)CC1)c1ccccc1O.[Na] [Sodium trans-4-(N-salicyloyl-aminomethyl)cyclohexane-1-carboxylic acid, reference compound]",,,10,5,5
"O=C(NC[C@H]1CC[C@H](C(=O)O)CC1)c1ccc(O)c(O)c1 [trans-4-[N-(3',4'-dihydroxybenzoyl)aminomethyl]cyclohexane-1-carboxylic acid]",> 3000,no abnormality on the mouse was found,100,35,30
